Source: patent US20220175820A1 (PIERRE FABRE DERMO-COSMETIQUE, priority 2019, published 2022)
Marks after values point to notes of the source that are not given here. Blank lines part the entries; values can stand above or below the compound they belong to.

Tests used:
IL-8 = IL-8 production by stimulated normal human epidermal keratinocytes (atopic dermatitis model, ELISA); format: cell-based; conditions: Poly I:C, PamC3, IL-4, IL-13
Method: (§1) The study is performed on normal human epidermal keratinocytes cultured under standard conditions (37° C., 5% CO2). The culture medium is standard (keratinocyte-SFM supplemented with 0.25 ng/ml epidermal growth factor (EGF), 25 μg/ml pituitary extract and 25 μg/ml gentamycin). The test medium is the same without growth factor.
(§2) To simulate an atopic dermatitis environment, keratinocytes are preincubated for 1 hour in the medium with or without (control) the compounds to be tested, the vehicle (water) or the positive control, bafilomycin (macrolide family) at 30 nM. […] After this preincubation, keratinocytes are stimulated for 24 hours by a mixture of TLR ligands (Poly I:C and PamC3) and inflammatory cytokines (IL-4 and IL-13) added to the cells. An unstimulated control condition is also done at the same time. The cells are incubated for 24 hours.
(§3) The culture supernatants are collected, centrifuged and frozen at −80° C. TSLP and IL-8 are quantified by ELISA.
(§4) Three independent experiments are conducted. Statistical analysis is determined by one-way ANOVA followed by Dunnett's post-hoc test.

TSLP = TSLP production by stimulated normal human epidermal keratinocytes (atopic dermatitis model, ELISA); format: cell-based; conditions: Poly I:C, PamC3, IL-4, IL-13
Method: as §1, §2, §3, §4

[1] = test system: transcription factor NFκB; assay: NFκB activation stimulated by TNFα in HaCat keratinocytes with luciferase reporter gene; format: cell-based, human; conditions: TNFα 0.3 ng/ml, 5 hours
Method: The cell line used in this study is the HaCat line (human keratinocytes) stably transfected with the luciferase reporter gene.
These cells are cultured on 24-well plates under the same conditions as in Example 1. They are then preincubated for 60 minutes with the products to be tested, added to the culture medium in the form of a solution in water. A stimulant, TNFα (0.3 ng/ml, diluted in culture medium) is added to the cultures which are then incubated for 5 hours at 37° C. […] A positive control is used in this test, dexamethasone (synthetic glucocorticoid hormone, with an antiinflammatory and immunosuppressant effect, added to the culture medium in the form of a solution in water) tested at 2 μM in the culture medium. Note that 3 independent experiments were conducted. The Bright-Glo™ agent (which induces cell lysis and thus enables luciferase release) and its substrate (luciferin) are added before reading the luminescence. The raw data are analyzed by Excel. The intergroup comparison is performed by one-way ANOVA followed by Dunnett's post-hoc test.

[2] = pH ranging from 4 to 10 at ambient temperature; cited from earlier work
[3] = test system: prostaglandin PG6KF1α production, HaCat line (human keratinocytes); assay: PG6KF1α release by HaCat keratinocytes stimulated with calcium ionophore A23187 (ELISA); format: cell-based
Method: The cell line used in this study is the HaCat line (human keratinocytes).
The cells are cultured in DMEM (Dulbecco's Modified Eagle Medium) supplemented with foetal calf serum in an environment at 37° C. and 5% CO2 on 24-well plates. They are then preincubated for 60 minutes, still at 37° C., with the products to be tested dissolved in water. A stimulant the arachidonic acid pathway is added for 5 hours. This is the stimulation phase; the stimulant is the calcium ionophore A23187 (solution in 0.01% DMSO) used at 5 μM. […] After 5 hours of stimulation, still in the same medium, the culture supernatant of each well is drawn off, centrifuged at 3000 RPM then stored at −20° C. The production of prostaglandin PG6KF1α in culture supernatant is measured with the Euromedex Elisa kit according to the supplier's instructions. Statistical analysis is performed by ANOVA followed by Dunnett's post-hoc test. Note that 3 independent experiments were conducted. The results for each product and for each dose are averaged from measurements performed on 3 wells. Thus, the control group (with no stimulant) makes it possible to quantify basal PG6KF1α production.

KLK7: type 7 kallikrein = assay: RT-qPCR gene expression in normal human keratinocytes: KLK7; format: cell-based; conditions: calcium chloride 1.5 mM, 48 h
Method: (§5) The effects of this compound were assessed via the RT-qPCR technique with the analysis of 12 target genes chosen for their importance in keratinocyte differentiation, antimicrobial defence and hydration. Calcium chloride (tested at 1.5 mM) is used as the reference compound (physiological agent inducing terminal epidermal differentiation). The cells are then collected for analysis of target expression (mRNA) by real-time PCR. Total RNAs were extracted with TriPure Isolation Reagent® according to the supplier's instructions (Roche Life Science, Meylan, France). They were assayed with the Bioanalyser 2100 (Agilent Technologies, Les Ulis, France). The mRNAs were reverse transcribed into complementary DNA with oligo(dT) and Transcriptor Reverse Transcriptase. PCR was performed in the LightCycler® System according to the supplier's instructions (Roche). The PCR mix used is SYBR green I. The results were analyzed with Microsoft Excel®. The relative quantity is calculated for each gene by normalizing with two reference genes, ribosomal protein L13A (RPL13A) and TATA box binding protein (TBP).

[4] = test system: SULT2B1: cholesterol sulfotransferase; assay: RT-qPCR gene expression in normal human keratinocytes: SULT2B1; format: cell-based; conditions: calcium chloride 1.5 mM, 48 h
Method: as §5

[5] = test system: DEGS2: sphingolipid C4-hydroxylase/delta-4 desaturase; assay: RT-qPCR gene expression in normal human keratinocytes: DEGS2; format: cell-based; conditions: calcium chloride 1.5 mM, 48 h
Method: as §5

CASP14: caspase 14 = assay: RT-qPCR gene expression in normal human keratinocytes: CASP14; format: cell-based; conditions: calcium chloride 1.5 mM, 48 h
Method: as §5

CLDN4: claudin 4 = assay: RT-qPCR gene expression in normal human keratinocytes: CLDN4; format: cell-based; conditions: calcium chloride 1.5 mM, 48 h
Method: as §5

CDSN : corneodesmosin = assay: RT-qPCR gene expression in normal human keratinocytes: CDSN; format: cell-based; conditions: calcium chloride 1.5 mM, 48 h
Method: as §5

DEFB4A: β-defensin 2 = assay: RT-qPCR gene expression in normal human keratinocytes: DEFB4A; format: cell-based; conditions: calcium chloride 1.5 mM, 48 h
Method: as §5

TGM1: transglutaminase 1 = assay: RT-qPCR gene expression in normal human keratinocytes: TGM1; format: cell-based; conditions: calcium chloride 1.5 mM, 48 h
Method: as §5

[6] = test system: FABP5: epidermal fatty acid binding protein; assay: RT-qPCR gene expression in normal human keratinocytes: FABP5; format: cell-based; conditions: calcium chloride 1.5 mM, 48 h
Method: as §5

FLG: filaggrin = assay: RT-qPCR gene expression in normal human keratinocytes: FLG; format: cell-based; conditions: calcium chloride 1.5 mM, 48 h
Method: as §5

[7] = dextran sulfate (Dextralip, 9000-20000 Da) 0.3 μg/ml
[8] = dextran sulfate (Dextralip, 9000-20000 Da) 0.3 μg/ml, listed as dextran sulfate
[9] = dextran sulfate (Dextralip, 9000-20000 Da) 3 μg/ml
[10] = dextran sulfate (Dextralip, 9000-20000 Da) 30 μg/ml
[11] = natural dextran sulfate (Dextralip, 9000-20000 Da) 0.3 mg/ml
[12] = natural dextran sulfate (Dextralip, 9000-20000 Da) 1 mg/ml
[13] = natural dextran sulfate (Dextralip, 9000-20000 Da) 3 mg/ml
[14] = natural dextran sulfate 9000-20000 Da (Dextralip) 10 μg/ml, A23187 5 μM 5 h
[15] = natural dextran sulfate 9000-20000 Da (Dextralip) 30 μg/ml, A23187 5 μM 5 h
[16] = natural dextran sulfate 9000-20000 Da (Dextralip) 100 μg/ml, A23187 5 μM 5 h
[17] = natural dextran sulfate 9000-20000 Da (Dextralip) 300 μg/ml, A23187 5 μM 5 h
[18] = natural dextran sulfate 9000-20000 Da (Dextralip) 1000 μg/ml, A23187 5 μM 5 h
[19] = natural dextran sulfate 9000-20000 Da (Dextralip) 3000 μg/ml, A23187 5 μM 5 h
[20] = synthetic dextran sulfate 4000-8000 Da 10 μg/ml, A23187 5 μM 5 h
[21] = synthetic dextran sulfate 4000-8000 Da 30 μg/ml, A23187 5 μM 5 h
[22] = synthetic dextran sulfate 4000-8000 Da 100 μg/ml, A23187 5 μM 5 h
[23] = synthetic dextran sulfate 4000-8000 Da 300 μg/ml, A23187 5 μM 5 h
[24] = synthetic dextran sulfate 4000-8000 Da 1000 μg/ml, A23187 5 μM 5 h
[25] = synthetic dextran sulfate 4000-8000 Da 3000 μg/ml, A23187 5 μM 5 h
[26] = indomethacin 0.1 μM, A23187 5 μM for 5 hours

NFκB activation % Inh [1, 11]: does not reduce NFκB activation | NFκB activation RLU Mean [1, 11]: 27024 RLU | NFκB activation % Inh ([1]; natural dextran sulfate (Dextralip, 9000-20000 Da) 0.3 mg/ml, listed as Dex S.): −13% | NFκB activation % Inh [1, 12]: does not reduce NFκB activation | NFκB activation RLU Mean [1, 12]: 23229 RLU | NFκB activation % Inh ([1]; natural dextran sulfate (Dextralip, 9000-20000 Da) 1 mg/ml, listed as Dex S.): 3% | NFκB activation % Inh [1, 13]: 42% | NFκB activation RLU Mean [1, 13]: 13836 RLU
Compound: Sodium dextran sulphate [Dextran sulfate]
Production of IL-8 at 24 h % Inh (IL-8; [7]): 0% | Production of IL-8 at 24 h Mean (IL-8; [7]): 63672 pg/mL | Production of IL-8 at 24 h % Inh (IL-8; [8]): not sufficient to inhibit IL-8 production | Production of IL-8 at 24 h % Inh (IL-8; [9]): 82** % | Production of IL-8 at 24 h Mean (IL-8; [9]): 10837 pg/mL | Production of IL-8 at 24 h % Inh (IL-8; dextran sulfate (Dextralip, 9000-20000 Da) 3 μg/ml, listed as dextran sulfate): more than 80% | Production of IL-8 at 24 h % Inh (IL-8; [10]): 100% | Production of IL-8 at 24 h Mean (IL-8; [10]): 170 pg/mL | TSLP production at 24 h % Inh (TSLP; [7]): 0% | TSLP production at 24 h Mean (TSLP; [7]): 247 pg/mL | TSLP production at 24 h % Inh (TSLP; [8]): does not induce reduction in TSLP production | TSLP production at 24 h % Inh (TSLP; [9]): 90% | TSLP production at 24 h Mean (TSLP; [9]): 34 pg/mL | TSLP production at 24 h % Inh (TSLP; [10]): 96% | TSLP production at 24 h Mean (TSLP; [10]): 19 pg/mL | stability in solutions [2]: high stability | PG6KF1α % Inh [3, 14]: 36% | PG6KF1α (pg/ml) Mean [3, 14]: 1878.6 pg/mL | PG6KF1α % Inh [3, 15]: 23% | PG6KF1α (pg/ml) Mean [3, 15]: 2113.4 pg/mL | PG6KF1α % Inh [3, 16]: 14% | PG6KF1α (pg/ml) Mean [3, 16]: 2287.5 pg/mL | PG6KF1α % Inh [3, 17]: 32% | PG6KF1α (pg/ml) Mean [3, 17]: 1950.9 pg/mL | PG6KF1α % Inh [3, 18]: 43% | PG6KF1α (pg/ml) Mean [3, 18]: 1737.6 pg/mL | PG6KF1α % Inh [3, 19]: 37% | PG6KF1α (pg/ml) Mean [3, 19]: 1843.8 pg/mL | PG6KF1α % Inh [3, 20]: 35% | PG6KF1α (pg/ml) Mean [3, 20]: 1536.5 pg/mL | PG6KF1α % Inh [3, 21]: 23% | PG6KF1α (pg/ml) Mean [3, 21]: 1719.7 pg/mL | PG6KF1α % Inh [3, 22]: 14% | PG6KF1α (pg/ml) Mean [3, 22]: 1848.5 pg/mL | PG6KF1α % Inh [3, 23]: 29% | PG6KF1α (pg/ml) Mean [3, 23]: 1626.6 pg/mL | PG6KF1α % Inh [3, 24]: 40% | PG6KF1α (pg/ml) Mean [3, 24]: 1462.5 pg/mL | PG6KF1α % Inh [3, 25]: 39% | PG6KF1α (pg/ml) Mean [3, 25]: 1486.2 pg/mL

Compound: COc1ccc2c(c1)c(CC(=O)O)c(C)n2C(=O)c1ccc(Cl)cc1 [Indo, indomethacin, reference compound]
PG6KF1α % Inh [3, 26]: 33% | PG6KF1α (pg/ml) Mean [3, 26]: 839.9 pg/mL | PG6KF1α % Inh ([3]; indomethacin 0.1 μM, A23187 5 μM for 5 hours, listed as Indomethacin): a third

Compound: [Ca+2].[Cl-].[Cl-] [Calcium chloride]
KLK7 Mean RQ (relative quantity) (KLK7: type 7 kallikrein): 11.3 | SULT2B1 Mean RQ (relative quantity) [4]: 14.0 | DEGS2 Mean RQ (relative quantity) [5]: 3.0 | CASP14 Mean RQ (relative quantity) (CASP14: caspase 14): 1.6 | CLDN4 Mean RQ (relative quantity) (CLDN4: claudin 4): 2.5 | CDSN Mean RQ (relative quantity) (CDSN : corneodesmosin): 1.8 | DEFB4A Mean RQ (relative quantity) (DEFB4A: β-defensin 2): 118.0 | TGM1 Mean RQ (relative quantity) (TGM1: transglutaminase 1): 9.0 | FABP5 Mean RQ (relative quantity) [6]: 6.9 | FLG Mean RQ (relative quantity) (FLG: filaggrin): 4.5
